Source: US10617668B2, “Pharmaceutical formulations” (Janssen Pharmaceutica NV, priority 2010, dated 2020)

Assay: In vivo pharmacokinetics of oral formulations in healthy human subjects
Description: The three dose levels included 25 mg (representative formulation listed in Table 1.2), 200 mg (representative formulation listed in Table 1.3) and 400 mg of the drug compound.

- mean AUCinf values across formulations and food conditions (all doses (25 mg, 200 mg and 400 mg), fed or fasting): comparable
- effect of food on the extent of bioavailability (human subjects, fed versus fasted): no significant effect
- half-life (human, plasma, oral, all treatment regimens regardless of formulation and food intake, read-out: mean t1/2): 8 to 12 h
Compound: Cc1ccc(C2O[C@H](CO)[C@@H](O)[C@H](O)[C@H]2O)cc1Cc1ccc(-c2ccc(F)cc2)s1 (stereo partly drawn) [compound of Formula (I-S)]
